Measured values reported in ChEMBL document CHEMBL3885861, “Open TG-GATES”.

Species: Rattus norvegicus
Test: Open TG-GATES - Regimen: Daily Repeat
Type: toxicity, organism-based, Sprague-Dawley
Design: regimen Daily Repeat, gender Male, age 6 weeks
Conditions: in vivo, po, route gavage; for APTT / Bas / Eos / Fbg / Hb / Ht / Lym / MCH / MCHC / MCV / Mono / Neu / PT / Plat / RBC / Ret / WBC: tissue Blood; for KIDNEY_L / KIDNEY_R / KIDNEY_TOTAL: tissue Kidney; for LIVER: tissue Liver; for A/G / ALP / ALT / AST / BUN / CRE / Ca / Cl / DBIL / GLC / IP / K / LDH / Na / PL / RALB / TBIL / TC / TG / TP / gamma-GTP: tissue Plasma
[1] = 100 mg/kg, 72 h, dose level Middle, time 3 day
[2] = 100 mg/kg, […], dose level Middle, time 7 day
[3] = 100 mg/kg, […], dose level Middle, time 14 day
[4] = 100 mg/kg, […], dose level Middle, time 28 day
[5] = 300 mg/kg, 72 h, dose level High, time 3 day
[6] = 300 mg/kg, […], dose level High, time 7 day
[7] = 300 mg/kg, […], dose level High, time 14 day
[8] = 300 mg/kg, […], dose level High, time 28 day

## Clc1c(Cl)c(Cl)c(Cl)c(Cl)c1Cl [PERCHLOROBENZENE]
[1]
  TERMINAL_BW: 223.3 g
  APTT: 15.9 s
  Bas: 0%
  Eos: 1.2%
  Fbg: 221.4 mg/dL
  Hb: 14.1 g/dL
  Ht: 42.1%
  Lym: 73.2%
  MCH: 21.7 pg
  MCHC: 33.5%
  MCV: 64.8 fL
  Mono: 7.4%
  Neu: 18.2%
  PT: 11.2 s
  Plat: 104.2 x10_4/uL
  RBC: 650.6 x10_4/ul
  Ret: 7.5%
  WBC: 113.8 x10_2/uL
  KIDNEY_L: 1 g
  KIDNEY_R: 1 g
  KIDNEY_TOTAL: 2 g
  LIVER: 13.1 g
  A/G: 1.8
  ALP: 823 IU/L
  ALT: 43.4 IU/L
  AST: 65.8 IU/L
  BUN: 16 mg/dL
  CRE: 0.5 mg/dL
  Ca: 10.6 mg/dL
  Cl: 106.2 meq/L
  DBIL: 0.006 mg/dL
  GLC: 194.8 mg/dL
  IP: 8.7 mg/dL
  K: 5.2 meq/L
  LDH: 121.4 IU/L
  Na: 139 meq/L
  PL: 168 mg/dL
  RALB: 3.7 g/dL
  TBIL: 0.4 mg/dL
  TC: 91.8 mg/dL
  TG: 162.4 mg/dL
  TP: 5.8 g/dL
  gamma-GTP: 1.6 IU/L
[2]
  TERMINAL_BW: 265.6 g
  APTT: 17.2 s
  Bas: 0%
  Eos: 1.2%
  Fbg: 238.8 mg/dL
  Hb: 14.5 g/dL
  Ht: 43.3%
  Lym: 64.2%
  MCH: 21.3 pg
  MCHC: 33.4%
  MCV: 63.7 fL
  Mono: 14.4%
  Neu: 20.4%
  PT: 11.7 s
  Plat: 115.6 x10_4/uL
  RBC: 680.8 x10_4/ul
  Ret: 5.7%
  WBC: 104 x10_2/uL
  KIDNEY_L: 1.2 g
  KIDNEY_R: 1.2 g
  KIDNEY_TOTAL: 2.3 g
  LIVER: 17.2 g
  A/G: 1.9
  ALP: 631.4 IU/L
  ALT: 33 IU/L
  AST: 59.2 IU/L
  BUN: 17.2 mg/dL
  CRE: 0.7 mg/dL
  Ca: 10.7 mg/dL
  Cl: 104.2 meq/L
  DBIL: 0.01 mg/dL
  GLC: 179.8 mg/dL
  IP: 7.9 mg/dL
  K: 4.9 meq/L
  LDH: 127.8 IU/L
  Na: 137.8 meq/L
  PL: 191.6 mg/dL
  RALB: 3.9 g/dL
  TBIL: 0.5 mg/dL
  TC: 112.4 mg/dL
  TG: 151.6 mg/dL
  TP: 6.1 g/dL
  gamma-GTP: 1.8 IU/L
[3]
  TERMINAL_BW: 308.5 g
  APTT: 19.7 s
  Bas: 0%
  Eos: 1%
  Fbg: 263.2 mg/dL
  Hb: 14.5 g/dL
  Ht: 43.3%
  Lym: 77.6%
  MCH: 20.9 pg
  MCHC: 33.6%
  MCV: 62.3 fL
  Mono: 8%
  Neu: 13.6%
  PT: 12.2 s
  Plat: 117.2 x10_4/uL
  RBC: 695 x10_4/ul
  Ret: 4.6%
  WBC: 156.2 x10_2/uL
  KIDNEY_L: 1.3 g
  KIDNEY_R: 1.3 g
  KIDNEY_TOTAL: 2.5 g
  LIVER: 21.6 g
  A/G: 2
  ALP: 470.8 IU/L
  ALT: 30.2 IU/L
  AST: 54.2 IU/L
  BUN: 17 mg/dL
  CRE: 0.6 mg/dL
  Ca: 10.4 mg/dL
  Cl: 106.6 meq/L
  DBIL: 0.014 mg/dL
  GLC: 171.2 mg/dL
  IP: 7.8 mg/dL
  K: 4.9 meq/L
  LDH: 102.2 IU/L
  Na: 140.2 meq/L
  PL: 192.6 mg/dL
  RALB: 4.4 g/dL
  TBIL: 0.5 mg/dL
  TC: 115.2 mg/dL
  TG: 145.2 mg/dL
  TP: 6.6 g/dL
  gamma-GTP: 2.8 IU/L
[4]
  TERMINAL_BW: 338.7 g
  APTT: 23.8 s
  Bas: 0%
  Eos: 2.2%
  Fbg: 320.6 mg/dL
  Hb: 15.3 g/dL
  Ht: 46%
  Lym: 65%
  MCH: 19.7 pg
  MCHC: 33.2%
  MCV: 59.4 fL
  Mono: 15.4%
  Neu: 17.8%
  PT: 15.8 s
  Plat: 100.2 x10_4/uL
  RBC: 774.8 x10_4/ul
  Ret: 3%
  WBC: 182.8 x10_2/uL
  KIDNEY_L: 1.5 g
  KIDNEY_R: 1.5 g
  KIDNEY_TOTAL: 2.9 g
  LIVER: 29.5 g
  A/G: 1.6
  ALP: 316.6 IU/L
  ALT: 50.4 IU/L
  AST: 48.8 IU/L
  BUN: 21.8 mg/dL
  CRE: 0.7 mg/dL
  Ca: 11.2 mg/dL
  Cl: 105.6 meq/L
  DBIL: 0.014 mg/dL
  GLC: 159.6 mg/dL
  IP: 9.2 mg/dL
  K: 5.3 meq/L
  LDH: 157.4 IU/L
  Na: 143.4 meq/L
  PL: 193 mg/dL
  RALB: 4.6 g/dL
  TBIL: 0.3 mg/dL
  TC: 120.2 mg/dL
  TG: 116.2 mg/dL
  TP: 7.6 g/dL
  gamma-GTP: 11.4 IU/L
[5]
  TERMINAL_BW: 226 g
  APTT: 15.9 s
  Bas: 0%
  Eos: 1.2%
  Fbg: 225.4 mg/dL
  Hb: 14.3 g/dL
  Ht: 42.9%
  Lym: 71.2%
  MCH: 21.6 pg
  MCHC: 33.2%
  MCV: 65.2 fL
  Mono: 10.6%
  Neu: 16.8%
  PT: 11 s
  Plat: 98.4 x10_4/uL
  RBC: 658.8 x10_4/ul
  Ret: 8%
  WBC: 106.3 x10_2/uL
  KIDNEY_L: 1 g
  KIDNEY_R: 1 g
  KIDNEY_TOTAL: 2 g
  LIVER: 13.7 g
  A/G: 2.1
  ALP: 720.6 IU/L
  ALT: 41 IU/L
  AST: 64.8 IU/L
  BUN: 15 mg/dL
  CRE: 0.6 mg/dL
  Ca: 10.7 mg/dL
  Cl: 105.8 meq/L
  DBIL: 0.002 mg/dL
  GLC: 184 mg/dL
  IP: 8.3 mg/dL
  K: 5.1 meq/L
  LDH: 186 IU/L
  Na: 138.8 meq/L
  PL: 165.8 mg/dL
  RALB: 3.9 g/dL
  TBIL: 0.5 mg/dL
  TC: 92.2 mg/dL
  TG: 160.4 mg/dL
  TP: 5.7 g/dL
  gamma-GTP: 1.4 IU/L
[6]
  TERMINAL_BW: 262.7 g
  APTT: 16.1 s
  Bas: 0%
  Eos: 1%
  Fbg: 255.6 mg/dL
  Hb: 14.2 g/dL
  Ht: 43.1%
  Lym: 71.2%
  MCH: 21.5 pg
  MCHC: 33%
  MCV: 65 fL
  Mono: 9.4%
  Neu: 18.4%
  PT: 11.2 s
  Plat: 115 x10_4/uL
  RBC: 662 x10_4/ul
  Ret: 6.3%
  WBC: 117.1 x10_2/uL
  KIDNEY_L: 1.2 g
  KIDNEY_R: 1.3 g
  KIDNEY_TOTAL: 2.5 g
  LIVER: 18.4 g
  A/G: 2.1
  ALP: 604.6 IU/L
  ALT: 35.6 IU/L
  AST: 55.4 IU/L
  BUN: 15.8 mg/dL
  CRE: 0.7 mg/dL
  Ca: 10.9 mg/dL
  Cl: 104.4 meq/L
  DBIL: 0.01 mg/dL
  GLC: 173.4 mg/dL
  IP: 8.9 mg/dL
  K: 4.7 meq/L
  LDH: 178.4 IU/L
  Na: 138.8 meq/L
  PL: 205.8 mg/dL
  RALB: 4.2 g/dL
  TBIL: 0.4 mg/dL
  TC: 124.6 mg/dL
  TG: 147.2 mg/dL
  TP: 6.2 g/dL
  gamma-GTP: 2.6 IU/L
[7]
  TERMINAL_BW: 310.5 g
  APTT: 20.8 s
  Bas: 0%
  Eos: 1.2%
  Fbg: 280.2 mg/dL
  Hb: 13.9 g/dL
  Ht: 41.6%
  Lym: 67.8%
  MCH: 20.7 pg
  MCHC: 33.3%
  MCV: 62.1 fL
  Mono: 14.8%
  Neu: 16.4%
  PT: 12.7 s
  Plat: 120.7 x10_4/uL
  RBC: 669.4 x10_4/ul
  Ret: 4.2%
  WBC: 140.9 x10_2/uL
  KIDNEY_L: 1.4 g
  KIDNEY_R: 1.3 g
  KIDNEY_TOTAL: 2.7 g
  LIVER: 24.3 g
  A/G: 2
  ALP: 379.8 IU/L
  ALT: 32.8 IU/L
  AST: 51.6 IU/L
  BUN: 17.2 mg/dL
  CRE: 0.6 mg/dL
  Ca: 10.6 mg/dL
  Cl: 107.4 meq/L
  DBIL: 0.01 mg/dL
  GLC: 165.6 mg/dL
  IP: 8 mg/dL
  K: 4.6 meq/L
  LDH: 199.6 IU/L
  Na: 140.4 meq/L
  PL: 199.6 mg/dL
  RALB: 4.4 g/dL
  TBIL: 0.4 mg/dL
  TC: 124 mg/dL
  TG: 144.4 mg/dL
  TP: 6.8 g/dL
  gamma-GTP: 4 IU/L
[8]
  TERMINAL_BW: 358.3 g
  APTT: 22.1 s
  Bas: 0%
  Eos: 1.8%
  Fbg: 305.4 mg/dL
  Hb: 15.1 g/dL
  Ht: 45.5%
  Lym: 73.2%
  MCH: 19.4 pg
  MCHC: 33.2%
  MCV: 58.4 fL
  Mono: 11.8%
  Neu: 13.4%
  PT: 14 s
  Plat: 92 x10_4/uL
  RBC: 779.6 x10_4/ul
  Ret: 2.9%
  WBC: 161.2 x10_2/uL
  KIDNEY_L: 1.6 g
  KIDNEY_R: 1.6 g
  KIDNEY_TOTAL: 3.3 g
  LIVER: 31 g
  A/G: 1.8
  ALP: 213.2 IU/L
  ALT: 41.6 IU/L
  AST: 43.8 IU/L
  BUN: 19.2 mg/dL
  CRE: 0.7 mg/dL
  Ca: 10.8 mg/dL
  Cl: 105.4 meq/L
  DBIL: 0.038 mg/dL
  GLC: 151 mg/dL
  IP: 8.4 mg/dL
  K: 5 meq/L
  LDH: 163.2 IU/L
  Na: 143 meq/L
  PL: 175 mg/dL
  RALB: 4.7 g/dL
  TBIL: 0.3 mg/dL
  TC: 107.6 mg/dL
  TG: 174 mg/dL
  TP: 7.3 g/dL
  gamma-GTP: 7.8 IU/L
